Read-outs that look alike come from different tables or passages of the source. Blank lines part the entries; values can stand above or below the molecule they belong to.
Key:
PTP1B = molecular target: T1, PTP1B (Homo sapiens, UniProt P18031); experiment: PTP1B inhibition assay with p-nitrophenyl phosphate (pNPP) as substrate; conditions: for % Inhibition (20 μM) on PTP1B: 20 μM compound, 2% DMSO; for inhibition at 20 µM: read-out: % Inhibition (20 μM) on PTP1B; for PTP1B inhibitory activity, in words: screened at 20 μM
T1 sequence (P18031 1-435): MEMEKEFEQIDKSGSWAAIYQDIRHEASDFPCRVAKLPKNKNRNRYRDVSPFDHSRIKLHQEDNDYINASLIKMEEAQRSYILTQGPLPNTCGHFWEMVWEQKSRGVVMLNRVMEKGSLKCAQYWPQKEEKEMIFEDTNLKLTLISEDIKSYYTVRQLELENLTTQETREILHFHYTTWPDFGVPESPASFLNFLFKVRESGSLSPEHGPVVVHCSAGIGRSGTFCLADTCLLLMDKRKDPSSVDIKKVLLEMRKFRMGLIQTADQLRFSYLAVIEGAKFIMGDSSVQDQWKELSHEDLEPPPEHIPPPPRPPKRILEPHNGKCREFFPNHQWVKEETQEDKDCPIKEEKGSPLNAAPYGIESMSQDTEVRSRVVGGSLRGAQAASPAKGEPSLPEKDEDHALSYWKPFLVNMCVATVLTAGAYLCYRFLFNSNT

[1] = molecular target: T2, T-cell protein tyrosine phosphatase (TCPTP) (Homo sapiens, UniProt P17706); experiment: TCPTP inhibition assay (selectivity); format: biochemical; conditions: for inhibition at 20 µM / % Inhibition (20 μM) on TCPTP: 20 μM compound, 2% DMSO
T2 sequence (P17706 1-415): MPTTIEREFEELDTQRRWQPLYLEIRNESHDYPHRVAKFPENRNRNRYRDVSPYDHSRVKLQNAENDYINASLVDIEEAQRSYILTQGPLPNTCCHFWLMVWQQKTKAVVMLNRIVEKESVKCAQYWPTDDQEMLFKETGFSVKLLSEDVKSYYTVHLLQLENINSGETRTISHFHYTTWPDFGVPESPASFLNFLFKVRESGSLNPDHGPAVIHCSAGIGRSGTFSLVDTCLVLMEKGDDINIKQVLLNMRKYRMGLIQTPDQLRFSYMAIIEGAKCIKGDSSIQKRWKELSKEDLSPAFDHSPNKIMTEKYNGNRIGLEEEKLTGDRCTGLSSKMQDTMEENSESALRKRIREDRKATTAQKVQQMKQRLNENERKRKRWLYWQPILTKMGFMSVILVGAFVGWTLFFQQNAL
Description: The selectivity of all the PTP1B inhibitory compounds was also evaluated against TCPTP.

[2] = read-out: IC50 on PTP1B, pNPP substrate, dose-response run when inhibition >50% at 20 μM

Compound: NC(=NOC(=O)Cc1c[nH]c2ccccc12)c1ccc(F)cc1 [9b]
- % Inhibition (20 μM) on PTP1B (PTP1B; pNPP substrate): 14.0 ± 4.3%

Compound: NC(=NOC(=O)Cc1c[nH]c2ccccc12)c1ccc(Cl)cc1 [9c]
- % Inhibition (20 μM) on PTP1B (PTP1B; pNPP substrate): 5.2 ± 1.8%

Compound: NC(=NOC(=O)Cc1c[nH]c2ccccc12)c1ccc([N+](=O)[O-])cc1 [9d]
- % Inhibition (20 μM) on PTP1B (PTP1B; pNPP substrate): 9.8 ± 7.1%

Compound: CCc1ccc(C(N)=NOC(=O)Cc2c[nH]c3ccccc23)cc1 [9e]
- % Inhibition (20 μM) on PTP1B (PTP1B; pNPP substrate): 23.4 ± 3.7%

Compound: CCc1ccc(C(=O)ON=C(N)Cc2c[nH]c3ccccc23)cc1 [13a]
- IC50 (PTP1B; [2]): > 20 µM

Compound: CCCCCCc1ccc(C(=O)ON=C(N)Cc2c[nH]c3ccccc23)cc1 [13c]
- IC50 (PTP1B; [2]): > 20 µM

Compound: NC(Cc1c[nH]c2ccccc12)=NOC(=O)c1ccc(C(F)(F)F)cc1 [13e]
- IC50 (PTP1B; [2]): > 20 µM

Compound: COc1ccc(C(=O)ON=C(N)Cc2c[nH]c3ccccc23)cc1 [13f]
- IC50 (PTP1B; [2]): > 20 µM

Compound: COc1ccc(C(=O)ON=C(N)Cc2c[nH]c3ccccc23)c(Br)c1 [13g]
- IC50 (PTP1B; [2]): > 20 µM

Compound: CCCCC(=O)ON=C(N)Cc1c[nH]c2ccccc12 [13h]
- IC50 (PTP1B; [2]): > 20 µM

Compound: NC(Cc1c[nH]c2ccccc12)=NOC(=O)CCCCBr [13i]
- IC50 (PTP1B; [2]): > 20 µM

Compound: CCCCCCc1ccc(-c2nc(Cc3c[nH]c4ccccc34)no2)cc1 [14c]
- % Inhibition (20 μM) on TCPTP [1]: 54.18%
- IC50 (PTP1B; [2]): 4.9 ± 0.8 µM

Compound: COc1ccc(-c2nc(Cc3c[nH]c4ccccc34)no2)cc1 [14f]
- IC50 (PTP1B; [2]): > 20 µM
- PTP1B inhibitory activity, in words (PTP1B): no activity

Compound: c1ccc2c(Cc3noc(C4CCCCC4)n3)c[nH]c2c1 [14n]
- % Inhibition (20 μM) on TCPTP [1]: 11.68%
- TCPTP inhibitory activity, in words ([1]; at the concentration of 20 μM): lowest inhibitory percentage
- IC50 (PTP1B; [2]): 5.3 ± 0.7 µM

Compound: c1ccc(-c2nc(Cc3c[nH]c4ccccc34)no2)nc1 [14o]
- IC50 (PTP1B; [2]): > 20 µM

More lines, now with the values ahead:

- % Inhibition (20 μM) on PTP1B (PTP1B; pNPP substrate): 7.3 ± 6.8%
Compound: NC(=NOC(=O)Cc1c[nH]c2ccccc12)c1ccccc1 [9a]

- % Inhibition (20 μM) on PTP1B (PTP1B; pNPP substrate): 2.4 ± 1.2%
Compound: c1ccc(-c2noc(Cc3c[nH]c4ccccc34)n2)cc1 [10a]

- % Inhibition (20 μM) on PTP1B (PTP1B; pNPP substrate): 19.8 ± 0.1%
Compound: Fc1ccc(-c2noc(Cc3c[nH]c4ccccc34)n2)cc1 [10b]

- % Inhibition (20 μM) on PTP1B (PTP1B; pNPP substrate): 40.0 ± 7.6%
Compound: Clc1ccc(-c2noc(Cc3c[nH]c4ccccc34)n2)cc1 [10c]

- % Inhibition (20 μM) on PTP1B (PTP1B; pNPP substrate): 44.5 ± 0.3%
Compound: O=[N+]([O-])c1ccc(-c2noc(Cc3c[nH]c4ccccc34)n2)cc1 [10d]

- inhibition at 20 µM [1]: 15.8%
- IC50 (PTP1B): 16.8 µM
- inhibition at 20 µM (PTP1B): 50.5 ± 1.1%
Compound: CCc1ccc(-c2noc(Cc3c[nH]c4ccccc34)n2)cc1 [10e]

- IC50 (PTP1B; [2]): > 20 µM
Compound: NC(Cc1c[nH]c2ccccc12)=NOC(=O)c1ccccc1F [13d]

- inhibition at 20 µM [1]: 9.22%
- IC50 (PTP1B): 13.5 ± 0.6 µM
Compound: CCc1ccc(-c2nc(Cc3c[nH]c4ccccc34)no2)cc1 [14a]

- % Inhibition (20 μM) on TCPTP [1]: 50.31%
- IC50 (PTP1B; [2]): 7.1 ± 0.1 µM
Compound: CCCCc1ccc(-c2nc(Cc3c[nH]c4ccccc34)no2)cc1 [14b]

- IC50 (PTP1B; [2]): > 20 µM
- PTP1B inhibitory activity, in words (PTP1B): no activity
Compound: Fc1ccccc1-c1nc(Cc2c[nH]c3ccccc23)no1 [14d]

- IC50 (PTP1B; [2]): > 20 µM
Compound: FC(F)(F)c1ccc(-c2nc(Cc3c[nH]c4ccccc34)no2)cc1 [14e]

- IC50 (PTP1B; [2]): > 20 µM
Compound: COc1ccc(-c2nc(Cc3c[nH]c4ccccc34)no2)c(Br)c1 [14g]

- IC50 (PTP1B; [2]): > 20 µM
- PTP1B inhibitory activity, in words (PTP1B): disappearance of the inhibitory activity
Compound: CCCCc1nc(Cc2c[nH]c3ccccc23)no1 [14h]

- IC50 (PTP1B; [2]): > 20 µM
- PTP1B inhibitory activity, in words (PTP1B): disappearance of the inhibitory activity
Compound: CC(=O)OCCCCc1nc(Cc2c[nH]c3ccccc23)no1 [14i]

- IC50 (PTP1B; [2]): > 20 µM
Compound: CC(C)c1nc(Cc2c[nH]c3ccccc23)no1 [14j]

- IC50 (PTP1B; [2]): > 20 µM
Compound: ClC(Cl)c1nc(Cc2c[nH]c3ccccc23)no1 [14k]

- % Inhibition (20 μM) on TCPTP [1]: 25.52%
- IC50 (PTP1B; [2]): 8.6 ± 1.5 µM
Compound: c1ccc2c(Cc3noc(C4CCC4)n3)c[nH]c2c1 [14l]

- IC50 (PTP1B; [2]): > 20 µM
- PTP1B inhibitory activity, in words (PTP1B): lack of activity
Compound: c1ccc2c(Cc3noc(C4CCCC4)n3)c[nH]c2c1 [14m]

- IC50 (PTP1B; [2]): > 20 µM
Compound: Fc1ccc2[nH]cc(Cc3nc(Cc4c[nH]c5ccccc45)no3)c2c1 [14q]

- % Inhibition (20 μM) on TCPTP [1]: 34.51%
- IC50 (PTP1B; [2]): 7.4 ± 0.1 µM
Compound: Brc1ccc2[nH]cc(Cc3nc(Cc4c[nH]c5ccccc45)no3)c2c1 [14s]

- % Inhibition (20 μM) on TCPTP [1]: 38.74%
- IC50 (PTP1B; [2]): 9.7 ± 1.7 µM
Compound: Clc1cccc2[nH]cc(Cc3nc(Cc4c[nH]c5ccccc45)no3)c12 [14u]

- inhibition at 20 µM (PTP1B): 23.5 ± 2.6%
Compound: N=C(N)NCCCCCNc1noc(Cc2c[nH]c3ccccc23)n1 [Phidianidine B (2), phidianidine B, reference compound]

Source: publication PMC5867641, “Function-Oriented Synthesis of Marine Phidianidine Derivatives as Potential PTP1B Inhibitors with Specific Selectivity” (Marine Drugs, 2018)
